# How the values were obtained:
# [1] = molecular target: T1, Disintegrin and metalloproteinase domain-containing protein 10 (Homo sapiens, UniProt O14672); test: Inhibition of HER2 sheddase in human BT474 cells; assay type: cell-based, BT-474
# T1 sequence (O14672 whole entry): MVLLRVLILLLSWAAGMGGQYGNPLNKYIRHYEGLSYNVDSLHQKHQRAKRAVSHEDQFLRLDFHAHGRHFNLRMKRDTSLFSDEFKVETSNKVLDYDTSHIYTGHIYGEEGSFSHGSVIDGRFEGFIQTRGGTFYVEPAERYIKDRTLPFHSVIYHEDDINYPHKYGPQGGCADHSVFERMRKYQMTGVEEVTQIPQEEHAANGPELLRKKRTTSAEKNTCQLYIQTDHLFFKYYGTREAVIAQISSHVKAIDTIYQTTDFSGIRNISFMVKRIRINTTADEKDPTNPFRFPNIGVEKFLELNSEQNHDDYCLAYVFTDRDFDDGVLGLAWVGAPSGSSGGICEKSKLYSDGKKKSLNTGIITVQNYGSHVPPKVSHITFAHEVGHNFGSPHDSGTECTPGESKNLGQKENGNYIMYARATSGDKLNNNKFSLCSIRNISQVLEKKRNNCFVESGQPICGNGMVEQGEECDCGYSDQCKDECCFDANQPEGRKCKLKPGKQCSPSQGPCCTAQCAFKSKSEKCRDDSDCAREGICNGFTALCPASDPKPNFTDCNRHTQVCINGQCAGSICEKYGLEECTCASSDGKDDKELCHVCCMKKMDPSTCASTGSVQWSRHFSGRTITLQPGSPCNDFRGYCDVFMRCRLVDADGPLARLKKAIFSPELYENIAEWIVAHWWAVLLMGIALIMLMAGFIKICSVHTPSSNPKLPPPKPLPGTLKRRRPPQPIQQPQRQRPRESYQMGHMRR
# [2] = molecular target: T1, Disintegrin and metalloproteinase domain-containing protein 10
# [3] = molecular target: T2, Interstitial collagenase (Homo sapiens, UniProt P03956)
# T2 sequence (P03956 whole entry): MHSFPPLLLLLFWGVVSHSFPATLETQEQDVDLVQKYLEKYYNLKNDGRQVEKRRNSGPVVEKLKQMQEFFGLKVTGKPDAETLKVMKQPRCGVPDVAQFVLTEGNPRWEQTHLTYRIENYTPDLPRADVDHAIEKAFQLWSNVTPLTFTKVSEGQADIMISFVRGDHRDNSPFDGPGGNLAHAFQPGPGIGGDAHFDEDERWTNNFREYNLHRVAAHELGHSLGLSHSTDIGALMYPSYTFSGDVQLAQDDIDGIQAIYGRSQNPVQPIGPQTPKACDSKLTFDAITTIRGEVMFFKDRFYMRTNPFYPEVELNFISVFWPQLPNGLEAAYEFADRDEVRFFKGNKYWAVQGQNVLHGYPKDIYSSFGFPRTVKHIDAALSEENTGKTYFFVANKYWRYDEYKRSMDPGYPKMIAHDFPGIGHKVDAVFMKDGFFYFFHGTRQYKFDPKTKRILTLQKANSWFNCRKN
# [4] = molecular target: 72 kDa type IV collagenase (Homo sapiens, UniProt P08253)
# Sequence of 72 kDa type IV collagenase (P08253 whole entry): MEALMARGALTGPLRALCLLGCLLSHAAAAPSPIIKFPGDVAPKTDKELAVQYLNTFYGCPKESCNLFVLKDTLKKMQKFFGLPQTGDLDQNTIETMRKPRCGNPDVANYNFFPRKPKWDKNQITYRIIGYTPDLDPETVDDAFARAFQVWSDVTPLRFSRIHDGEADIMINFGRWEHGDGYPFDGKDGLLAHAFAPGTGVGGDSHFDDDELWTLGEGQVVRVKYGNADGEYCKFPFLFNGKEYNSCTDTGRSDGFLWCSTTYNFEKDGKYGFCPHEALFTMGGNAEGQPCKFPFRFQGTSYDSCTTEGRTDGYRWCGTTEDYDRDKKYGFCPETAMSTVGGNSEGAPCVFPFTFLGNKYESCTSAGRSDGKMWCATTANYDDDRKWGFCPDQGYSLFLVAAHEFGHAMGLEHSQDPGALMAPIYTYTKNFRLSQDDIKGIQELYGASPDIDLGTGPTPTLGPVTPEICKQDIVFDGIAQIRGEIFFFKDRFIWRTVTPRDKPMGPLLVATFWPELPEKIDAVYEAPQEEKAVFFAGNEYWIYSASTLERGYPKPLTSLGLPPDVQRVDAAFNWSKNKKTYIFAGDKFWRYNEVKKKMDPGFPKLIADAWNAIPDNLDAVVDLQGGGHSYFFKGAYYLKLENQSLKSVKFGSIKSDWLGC
# [5] = molecular target: Stromelysin-1 (Homo sapiens, UniProt P08254); test: Inhibition of MMP3
# Sequence of Stromelysin-1 (P08254 whole entry): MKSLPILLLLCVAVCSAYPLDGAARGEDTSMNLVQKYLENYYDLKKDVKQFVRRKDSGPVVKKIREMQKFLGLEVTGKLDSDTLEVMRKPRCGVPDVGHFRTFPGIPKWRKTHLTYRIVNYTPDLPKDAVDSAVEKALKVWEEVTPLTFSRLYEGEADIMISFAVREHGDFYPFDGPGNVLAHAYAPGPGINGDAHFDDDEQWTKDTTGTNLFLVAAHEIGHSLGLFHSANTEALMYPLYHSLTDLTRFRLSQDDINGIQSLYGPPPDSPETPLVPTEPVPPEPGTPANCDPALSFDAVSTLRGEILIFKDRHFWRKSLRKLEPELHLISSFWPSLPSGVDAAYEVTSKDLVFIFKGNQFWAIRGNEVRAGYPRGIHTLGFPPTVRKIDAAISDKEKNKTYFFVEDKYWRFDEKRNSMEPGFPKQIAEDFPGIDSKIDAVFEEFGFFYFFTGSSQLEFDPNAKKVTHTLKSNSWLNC
# [6] = molecular target: Matrix metalloproteinase-9 (Homo sapiens, UniProt P14780); test: Inhibition of MMP9
# Sequence of Matrix metalloproteinase-9 (P14780 whole entry): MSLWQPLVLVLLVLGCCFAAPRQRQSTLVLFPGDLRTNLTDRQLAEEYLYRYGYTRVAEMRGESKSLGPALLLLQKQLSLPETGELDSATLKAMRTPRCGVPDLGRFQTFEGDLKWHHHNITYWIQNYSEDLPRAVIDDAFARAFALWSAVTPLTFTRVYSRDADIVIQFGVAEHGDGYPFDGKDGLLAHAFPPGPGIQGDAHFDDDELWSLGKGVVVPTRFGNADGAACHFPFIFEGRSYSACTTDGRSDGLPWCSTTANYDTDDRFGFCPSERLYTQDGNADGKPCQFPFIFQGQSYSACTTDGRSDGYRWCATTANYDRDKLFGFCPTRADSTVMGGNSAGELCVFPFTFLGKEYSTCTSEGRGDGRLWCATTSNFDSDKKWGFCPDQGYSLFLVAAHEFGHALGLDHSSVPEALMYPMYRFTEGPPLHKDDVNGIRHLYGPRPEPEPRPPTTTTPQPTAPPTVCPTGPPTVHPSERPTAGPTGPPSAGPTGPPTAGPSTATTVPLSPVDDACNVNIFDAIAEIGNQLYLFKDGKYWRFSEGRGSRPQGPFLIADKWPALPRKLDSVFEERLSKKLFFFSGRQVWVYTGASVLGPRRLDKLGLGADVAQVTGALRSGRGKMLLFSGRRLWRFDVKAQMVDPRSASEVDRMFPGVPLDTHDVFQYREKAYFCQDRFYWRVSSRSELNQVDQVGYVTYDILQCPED
IC50 [1] [nM],IC50 [2] [nM],IC50 [3] [nM],IC50 [4] [nM],IC50 [5] [nM],IC50 [6] [nM],Compound
7.1,10,259,4,237,25,O=C(O[C@H]1CCOC1)N1CCC(CS(=O)(=O)N2CC=C(c3ccccc3)CC2)(C(=O)NO)CC1
217,107,–,> 2000,–,–,Cc1ccccc1N1CCN(S(=O)(=O)CC2(C(=O)NO)CCN(C(=O)O[C@H]3CCOC3)CC2)CC1
45,107,–,1560,–,–,Cc1cc(C#N)ccc1C1=CCN(S(=O)(=O)CC2(C(=O)NO)CCN(C(=O)O[C@H]3CCOC3)CC2)CC1
133,18,–,2000,–,–,Cc1ccccc1C1=CCN(S(=O)(=O)CC2(C(=O)NO)CCN(C(=O)O[C@H]3CCOC3)CC2)CC1
25,26,> 5000,> 5000,> 5000,> 5000,Cc1cc(C#N)ccc1N1CCN(S(=O)(=O)CC2(C(=O)NO)CCN(C(=O)O[C@H]3CCOC3)CC2)CC1
16,18,> 5000,546,–,–,Cc1ccccc1C1CCN(S(=O)(=O)CC2(C(=O)NO)CCN(C(=O)OC3CCNC3)CC2)CC1 (configuration not stated)
76,44,> 5000,135,942,100,O=C(O[C@H]1CCOC1)N1CCC(CS(=O)(=O)N2CCC(c3ccccc3F)CC2)(C(=O)NO)CC1
> 1000,> 2000,–,> 2000,–,–,N#Cc1ccccc1C1CCN(S(=O)(=O)CC2(C(=O)NO)CCN(C(=O)O[C@H]3CCOC3)CC2)CC1
23,34,> 5000,> 2000,–,–,Cc1ccccc1C1CCN(S(=O)(=O)CC2(C(=O)NO)CCN(C(=O)OC[C@@H]3CCCN3)CC2)CC1
30,19,> 5000,> 2000,–,–,Cc1ccccc1C1CCN(S(=O)(=O)CC2(C(=O)NO)CCN(C(=O)OC[C@H]3CCCN3)CC2)CC1
6.5,9.1,> 5000,1270,–,–,Cc1cc(C#N)ccc1C1CCN(S(=O)(=O)CC2(C(=O)NO)CCN(C(=O)OC[C@@H]3CCCN3)CC2)CC1
41,18,> 5000,> 2000,> 5000,> 5000,Cc1ccccc1C1CCN(S(=O)(=O)CC2(C(=O)NO)CCN(C(=O)O[C@H]3CCOC3)CC2)CC1
23,11,> 5000,1380,–,–,Cc1cc(C#N)ccc1C1CCN(S(=O)(=O)CC2(C(=O)NO)CCN(C(=O)OC[C@H]3CCCN3)CC2)CC1
> 1000,> 2000,–,655,–,–,Cc1cc(C(=O)N(C)C)ccc1C1CCN(S(=O)(=O)CC2(C(=O)NO)CCN(C(=O)O[C@H]3CCOC3)CC2)CC1
27,34,> 5000,> 2000,–,–,Cc1cc(C#N)ccc1C1=CCN(S(=O)(=O)CC2(C(=O)NO)CCN(C(=O)OC[C@@H]3CCCN3)CC2)CC1
14,12,> 5000,2000,> 5000,> 5000,Cc1cc(C#N)ccc1C1CCN(S(=O)(=O)CC2(C(=O)NO)CCN(C(=O)O[C@H]3CCOC3)CC2)CC1

IC50 [1] [nM],IC50 [2] [nM],IC50 [3] [nM],IC50 [4] [nM],IC50 [5] [nM],IC50 [6] [nM],Compound
77,39,–,9,–,–,N#Cc1ccc(C2CCN(S(=O)(=O)CC3(C(=O)NO)CCN(C(=O)O[C@H]4CCOC4)CC3)CC2)cc1
96,57,> 5000,126,756,535,Cc1cc(C2CCN(S(=O)(=O)CC3(C(=O)NO)CCN(C(=O)O[C@H]4CCOC4)CC3)CC2)cc(C)c1C#N
36,11,> 5000,564,–,–,Cc1ccccc1C1CCN(S(=O)(=O)CC2(C(=O)NO)CCN(C(=O)OC3(C)CCOC3)CC2)CC1 (configuration not stated)
102,332,–,52,–,–,O=C(O[C@H]1CCOC1)N1CCC(CS(=O)(=O)N2CC=C(c3ccccc3)C2)(C(=O)NO)CC1
833,286,> 5000,315,2160,955,Cc1cc(C)cc(C2CCN(S(=O)(=O)CC3(C(=O)NO)CCN(C(=O)O[C@H]4CCOC4)CC3)CC2)c1
358,261,–,549,–,–,O=C(O[C@H]1CCOC1)N1CCC(CS(=O)(=O)N2CCC(c3ccccc3)C2)(C(=O)NO)CC1 (some centres not stated)
–,–,8660,< 1.5,< 1.5,< 1.5,C#CCN1CCC(CS(=O)(=O)c2ccc(Oc3ccccc3)cc2)(C(=O)NO)CC1
19,24,> 5000,> 2000,–,–,Cc1cc(C#N)ccc1C1=CCN(S(=O)(=O)CC2(C(=O)NO)CCN(C(=O)OC[C@H]3CCCN3)CC2)CC1
13,15,774,13,925,78,O=C(O[C@H]1CCOC1)N1CCC(CS(=O)(=O)N2CCN(c3ccccc3)CC2)(C(=O)NO)CC1
13,7.8,> 5000,> 2000,–,–,Cc1cc(C#N)ccc1C1CCN(S(=O)(=O)CC2(C(=O)NO)CCN(C(=O)OC3CCNC3)CC2)CC1 (configuration not stated)
22,28,753,18,366,22,O=C(O[C@H]1CCOC1)N1CCC(CS(=O)(=O)N2CCC(c3ccccc3)CC2)(C(=O)NO)CC1
> 1000,1040,–,> 2000,–,–,O=C(O[C@H]1CCOC1)N1CCC(CS(=O)(=O)N2CCC(c3ccccc3C(F)(F)F)CC2)(C(=O)NO)CC1
14,22,> 5000,574,–,–,Cc1ccccc1C1CCN(S(=O)(=O)CC2(C(=O)NO)CCN(C(=O)OC3COCC3(C)C)CC2)CC1 (configuration not stated)
141,92,–,> 2000,–,–,Cc1cc(F)ccc1C1CCN(S(=O)(=O)CC2(C(=O)NO)CCN(C(=O)O[C@H]3CCOC3)CC2)CC1
6.2,16,5000,537,–,–,Cc1ccccc1C1CCN(S(=O)(=O)CC2(C(=O)NO)CCN(C(=O)OC3CCCC3O)CC2)CC1 (trans isomer)

# — ChEMBL document CHEMBL1140810, “Conversion of an MMP-potent scaffold to an MMP-selective HER-2 sheddase inhibitor via scaffold hybridization and subtle P1' permutations” (Bioorg Med Chem Lett, 2008)
